Measured values published in the supplement of paper PMC11451515.

System: NOMO1
Experiment: cell viability relative to DMSO control; higher = less cytotoxic
Details: 48 h
Outline: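 In 1536-well plates, 5 μl of leukemia cells were seeded per well: 500 cells/well for NOMO1 or SEM and 1000 cells/well for P12-Ichikawa. Each line had first been adapted for at least four passages in each medium. Library compounds in DMSO were pin-dosed at 11 threefold concentrations between 47 μM and 0.79 nM, and CellTiter-Glo One luminescence was read after 48 h at 37°C. Viability is a per-plate percentage relative to DMSO wells, with cell-free wells as background.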

[1] = HPLM + 10% dialyzed FBS, 0.000781 µM
[2] = HPLM + 10% dialyzed FBS, 0.00234 µM
[3] = HPLM + 10% dialyzed FBS, 0.00702 µM
[4] = HPLM + 10% dialyzed FBS, 0.0211 µM
[5] = HPLM + 10% dialyzed FBS, 0.0632 µM
[6] = HPLM + 10% dialyzed FBS, 0.19 µM
[7] = HPLM + 10% dialyzed FBS, 0.569 µM
[8] = HPLM + 10% dialyzed FBS, 1.71 µM
[9] = HPLM + 10% dialyzed FBS, 5.12 µM
[10] = HPLM + 10% dialyzed FBS, 15.4 µM
[11] = HPLM + 10% dialyzed FBS, 46.1 µM
[12] = RPMI 5 mM glucose + 10% FBS, 0.000781 µM
[13] = RPMI 5 mM glucose + 10% FBS, 0.00234 µM
[14] = RPMI 5 mM glucose + 10% FBS, 0.00702 µM
[15] = RPMI 5 mM glucose + 10% FBS, 0.0211 µM
[16] = RPMI 5 mM glucose + 10% FBS, 0.0632 µM
[17] = RPMI 5 mM glucose + 10% FBS, 0.19 µM
[18] = RPMI 5 mM glucose + 10% FBS, 0.569 µM
[19] = RPMI 5 mM glucose + 10% FBS, 1.71 µM
[20] = RPMI 5 mM glucose + 10% FBS, 5.12 µM
[21] = RPMI 5 mM glucose + 10% FBS, 15.4 µM
[22] = RPMI 5 mM glucose + 10% FBS, 46.1 µM
[23] = RPMI 5 mM glucose + 10% dialyzed FBS, 0.000781 µM
[24] = RPMI 5 mM glucose + 10% dialyzed FBS, 0.00234 µM
[25] = RPMI 5 mM glucose + 10% dialyzed FBS, 0.00702 µM
[26] = RPMI 5 mM glucose + 10% dialyzed FBS, 0.0211 µM
[27] = RPMI 5 mM glucose + 10% dialyzed FBS, 0.0632 µM
[28] = RPMI 5 mM glucose + 10% dialyzed FBS, 0.19 µM
[29] = RPMI 5 mM glucose + 10% dialyzed FBS, 0.569 µM
[30] = RPMI 5 mM glucose + 10% dialyzed FBS, 1.71 µM
[31] = RPMI 5 mM glucose + 10% dialyzed FBS, 5.12 µM
[32] = RPMI 5 mM glucose + 10% dialyzed FBS, 15.4 µM
[33] = RPMI 5 mM glucose + 10% dialyzed FBS, 46.1 µM

SMILES | cell viability [1] [%] | cell viability [2] [%] | cell viability [3] [%] | cell viability [4] [%] | cell viability [5] [%] | cell viability [6] [%] | cell viability [7] [%] | cell viability [8] [%] | cell viability [9] [%] | cell viability [10] [%] | cell viability [11] [%] | cell viability [12] [%] | cell viability [13] [%] | cell viability [14] [%] | cell viability [15] [%] | cell viability [16] [%] | cell viability [17] [%] | cell viability [18] [%] | cell viability [19] [%] | cell viability [20] [%] | cell viability [21] [%] | cell viability [22] [%] | cell viability [23] [%] | cell viability [24] [%] | cell viability [25] [%] | cell viability [26] [%] | cell viability [27] [%] | cell viability [28] [%] | cell viability [29] [%] | cell viability [30] [%] | cell viability [31] [%] | cell viability [32] [%] | cell viability [33] [%]
O=C(C1CCCCC1)N1CC(=O)N2CCc3ccccc3C2C1 (centres undefined) | 106 | 147 | 125 | 125 | 126 | 130 | 140 | 110 | 108 | 107 | 114 |  |  |  |  |  |  |  |  |  |  |  |  |  |  |  |  |  |  |  |  |  | 
Cl.Cl.Fc1ccc(C(OCCN2CCN(CCCc3ccccc3)CC2)c2ccc(F)cc2)cc1 | 120 | 113 | 127 | 125 | 139 | 123 | 127 | 130 | 104 | 93.1 | 11.3 | 119 | 116 | 116 | 119 | 111 | 109 | 117 | 113 | 108 | 116 | 18.5 | 113 | 129 | 113 | 126 | 123 | 135 | 112 | 118 | 122 | 96.4 | 12.9
Clc1ccc(COC(Cn2ccnc2)c2ccc(Cl)cc2Cl)cc1 (centres undefined) | 118 | 119 | 105 | 115 | 111 | 104 | 111 | 127 | 132 | 118 | 93.2 | 107 | 104 | 110 | 123 | 111 | 109 | 121 | 117 | 119 | 110 | 102 | 114 | 112 | 103 | 121 | 115 | 125 | 121 | 120 | 114 | 121 | 83.6
CN(C)CCC=C1C2=C(C=CC=C2)\C=C/C3=C1C=CC=C3 |  |  |  |  |  |  |  |  |  |  |  | 108 | 100 | 95.5 | 98 | 95.9 | 90.3 | 98.7 | 106 | 94 | 77 | 16.4 | 98.7 | 99 | 107 | 104 | 114 | 103 | 107 | 95.3 | 99.3 | 66.6 | 21.2
O=C(NC1CC1)c1cccc(-c2ccc3c(NC(=O)C4CC4)n[nH]c3c2)c1 | 101 | 109 | 117 | 121 | 119 | 109 | 119 | 118 | 122 | 87.6 | 38.3 | 129 | 113 | 122 | 139 | 125 | 115 | 111 | 112 | 123 | 98.7 | 20.2 | 118 | 124 | 123 | 130 | 124 | 129 | 110 | 122 | 132 | 99.7 | 35.3
C[C@@H]1CN(CC(=O)N2CC(C)(C)c3ncc(Cc4ccc(F)cc4)cc32)[C@@H](CN2CCOC[C@H]2C)CN1 | 100 | 117 | 145 | 112 | 129 | 114 | 112 | 103 | 109 | 84 | 46.4 | 96.9 | 120 | 121 | 111 | 117 | 121 | 102 | 109 | 103 | 95.3 | 91.4 | 95.4 | 119 | 117 | 119 | 111 | 114 | 111 | 106 | 105 | 98.2 | 69.3
COc1cc(/C=C/C(=O)CC(=O)/C=C/c2ccc(O)c(OC)c2)ccc1O | 105 | 105 | 118 | 111 | 112 | 123 | 114 | 115 | 99.8 | 42.3 | 5.01 | 97.4 | 93.6 | 103 | 108 | 106 | 105 | 102 | 115 | 102 | 73.2 | 7.35 | 105 | 105 | 106 | 106 | 118 | 112 | 104 | 104 | 101 | 79.9 | 10.1
COc1cc(N2CCC(N3CCN(C)CC3)CC2)ccc1Nc1ncnc(Nc2ccccc2[S+](=O)([O-])C(C)C)n1 | 92.5 | 92.9 | 95.9 | 111 | 65 | 123 | 144 | 117 | 102 | 54.4 | 31 | 110 | 103 | 113 | 119 | 88 | 117 | 115 | 108 | 110 | 62.5 | 43.2 | 87.6 | 87.7 | 91.9 | 89.3 | 69.1 | 107 | 123 | 114 | 109 | 58.3 | 34.5
CN[C@@H](C)C(=O)N[C@H]1CCCC[C@H]2CC[C@@H](C(=O)N[C@@H](c3ccccc3)c3cn(CCCCc4ccc(CCCCn5cc([C@@H](NC(=O)[C@@H]6CC[C@@H]7CCCC[C@H](NC(=O)[C@H](C)NC)C(=O)N76)c6ccccc6)nn5)cc4)nn3)N2C1=O | 82.8 | 79.3 | 56 | 61 | 42.3 | 54.4 | 50.6 | 47.9 | 48 | 27.5 | 33.4 | 85.6 | 82.4 | 80.8 | 87.9 | 48.4 | 61.5 | 74 | 70.8 | 51.8 | 51.2 | 57.1 | 75.9 | 81.6 | 84.8 | 64.9 | 65.5 | 72.2 | 53.6 | 52.2 | 42.6 | 54.7 | 34.2
COc1ccc(CCC(=O)Nc2nc3ccc(Cl)cc3s2)cc1OC | 120 | 106 | 111 | 135 | 122 | 126 | 123 | 101 | 106 | 122 | 86.2 | 107 | 104 | 113 | 105 | 122 | 117 | 113 | 94.4 | 105 | 100 | 96.6 | 114 | 99.3 | 119 | 108 | 120 | 110 | 106 | 102 | 104 | 98.2 | 91.2
CCCCc1oc2ccc(NS(C)(=O)=O)cc2c1C(=O)c1ccc(OCCCN(CCCC)CCCC)cc1 | 109 | 107 | 100 | 105 | 96.7 | 113 | 114 | 64.7 | 34 | 27.5 | 14.4 | 86.9 | 98 | 103 | 98.3 | 97.1 | 93.4 | 103 | 28.8 | 17.8 | 16.4 | 9.17 | 83.2 | 95.5 | 102 | 102 | 93.7 | 106 | 103 | 66 | 28.3 | 20.6 | 12.5
Cc1cc(SCc2sc(-c3ccc(C(F)(F)F)c(F)c3)nc2C)ccc1OCC(=O)O | 104 | 110 | 120 | 87.7 | 114 | 103 | 110 | 95.4 | 93.7 | 96.6 | 92.9 | 98.2 | 90.4 | 86 | 90.3 | 91 | 98.8 | 99.6 | 88.8 | 88.7 | 92.6 | 86.8 | 99.5 | 103 | 93.5 | 95 | 99.2 | 111 | 97.9 | 94 | 104 | 87.4 | 97
N/C(=N\C(=O)c1nc(Cl)c(N)nc1N)NCc1ccccc1 | 81 | 99.5 | 90.7 | 118 | 108 | 108 | 109 | 109 | 97.6 | 76.2 | 36.9 | 80.5 | 92.8 | 83.7 | 88.3 | 93.5 | 89 | 99 | 87.8 | 92.8 | 72.4 | 28.5 | 83.1 | 97 | 96.2 | 90.8 | 104 | 100 | 107 | 111 | 87.4 | 84.2 | 49.1
Cc1cnc(Nc2ccc(OCCN3CCCC3)cc2)nc1Nc1cccc([S+](=O)([O-])NC(C)(C)C)c1 | 78.8 | 102 | 109 | 116 | 117 | 126 | 102 | 114 | 110 | 100 | 84.3 | 105 | 107 | 104 | 90.3 | 108 | 110 | 98 | 97.3 | 114 | 92.7 | 102 | 87.5 | 106 | 99.6 | 105 | 100 | 102 | 103 | 102 | 103 | 102 | 100
